The values below are quoted from earlier work in patent US20060078974A1, “Novel purified hydroxymethylglutaryl-CoA reductases and structures thereof” (Affinium Pharmaceuticals, Inc., priority 2004, published 2006).

Each structure is given as a SMILES string.

For orientation: Ki means the dissociation constant of the complex between target and ligand, obtained from inhibition or displacement.

For this data set, the target named is S. aureus HMGR. The following applies: inhibition of S. aureus HMGR; reported value.

On to `CC(C)n1c(/C=C/[C@@H](O)C[C@@H](O)CC(=O)O)c(-c2ccc(F)cc2)c2ccccc21` (racemic) [Fluvastatin], for which the inhibition constant (Ki) is approximately 320 µM.
